Among the data in US8604034B2, “Substituted imidazo[1,2-α]pyrrolo[1,2-d]pyrazines for treating respiratory syncytial virus (RSV) infections” (Biota Scientific Management Pty Ltd., priority 2010, dated 2013) are EC50 values, retold here.

The subject of the assay is RSV A2. In words: RSV antiviral cytopathic effect (CPE) assay. It is filed as cell-based. The conditions noted are these: human respiratory syncytial virus, HEp-2, 120 h, HEp2 cells infected with RSV A2 (moi ~0.01), 5 days, MTT readout. The procedure:
Compounds of the invention were tested for their antiviral activity against respiratory syncytial virus. Cytopathic effect (CPE) assays were performed essentially as described in the literature (see for example Watanabe et al, 1994, J. Virological Methods, 48:257). Serial dilutions of the test compounds were made in 96 well plates. HEp2 cells (1.0×10^4 cells/well) were infected with RSV at a low multiplicity of infection (e.g. RSV A2 at an moi of ˜0.01) and added to plates to assess antiviral activity. Uninfected HEp2 cells were used to assess compound cytotoxicity. Assays were incubated for 5 days at 37° C. in a 5% CO2 atmosphere. The extent of CPE was determined via metabolism of the vital dye 3-(4,5-dimethylthiaxol-2-yl)-2,5-diphenyltetrazolium bromide (MTT). MTT (1 mg/ml) was added to each well and plates incubated for 2 hours incubation at 37° C. Wells were aspirated, iso-propanol (200 μL) was added and absorbance values read at 540/650 nm. Compound concentrations that inhibited CPE by 50% (EC50) and developed cytotoxicity (CC50) were calculated using non-linear regression analysis.
Representative mean EC50 values obtained are also provided. In the inventors' experience, replicate EC50 values usually fall within three standard deviations of the mean.

Setting [1] is: read-out: Activity Range (RSV A2 EC50).
Where [2] appears, read: mean EC50, read-out: RSV A2 EC50.

Where two headings read alike, the source gives them in different places.

As for `Cc1cc2n(n1)CC1(c3ccc(Cl)cc3)N(C(=O)NCCc3ccccc3)CCN1C2=O` (stereo not shown) [Compound 41, 10a-(4-chlorophenyl)-7-methyl-5-oxo-N-(2-phenylethyl)-2,3,10,10a-tetrahydro-1H,5H-imidazo[1,2-a]pyrazolo[1,5-d]pyrazine-1-carboxamide], the EC50 under setting [1] is over 10000 nM.

Consider `Cc1cc2n(n1)CC1(c3ccc(Cl)cc3)N(C(=O)c3ccc(F)cc3)CCN1C2=O` (stereo not shown) [Compound 42], for which, under setting [1], the EC50 is over 10000 nM.

`Cc1cc2n(n1)CC1(c3ccc(Cl)cc3)N(C(=O)c3ccoc3)CCN1C2=O` (stereo not shown) [Compound 43]: the EC50 is, setting by setting: under setting [1], 500 to 10000 nM; under setting [2], 3400 nM.

Regarding `Cc1cc2n(n1)CC1(c3ccc(Cl)cc3)N(C(=O)c3cccnc3)CCN1C2=O` (stereo not shown) [Compound 44], the EC50 under setting [1] is over 10000 nM.

For the compound `Cc1cc2n(n1)CC1(c3ccc(Cl)cc3)N(C(=O)c3ccc(F)nc3)CCN1C2=O` (stereo not shown) [Compound 45], the EC50 under setting [1] is over 10000 nM.

On to `Cc1cc2n(n1)CC1(c3ccc(Cl)cc3)N(C(=O)NCc3ccccc3)CCN1C2=O` (stereo not shown) [Compound 46], for which the EC50 under setting [1] was over 10000 nM.

Turning to `Cc1cc2n(n1)CC1(c3ccc(Cl)cc3)NCCN1C2=O` (stereo not shown) [Compound 47], under setting [1], the EC50 is over 10000 nM.

Take `O=C(NCCc1ccccc1)N1CCN2C(=O)c3cccn3CC12c1ccc(Cl)cc1` (stereo not shown) [Compound 48]: the EC50 under setting [1] fell in the range of 500 to 10000 nM and the EC50 under setting [2] came to 1300 nM.

On to `O=C(c1conc1C(F)(F)F)N1CCN2C(=O)c3cccn3CC12c1ccc(Cl)cc1` (stereo not shown) [Compound 49], for which the EC50 was under 49 nM under setting [1] and 7.9 nM under setting [2].

Regarding `Cc1nocc1C(=O)N1CCN2C(=O)c3cccn3CC12C1CCOCC1` (stereo not shown) [Compound 50, 1-[(3-methyl-1,2-oxazol-4-yl)carbonyl]-10a-(tetrahydro-2H-pyran-4-yl)-2,3,10,10a-tetrahydro-1H,5H-imidazo[1,2-a]pyrrolo[1,2-d]pyrazin-5-onel], the EC50 is, setting by setting: under setting [1], 500 to 10000 nM; under setting [2], 1420 nM.

Consider `COc1ccc(C23Cn4cccc4C(=O)N2CCN3C(=O)c2cnoc2)cc1` (stereo not shown) [Compound 51], for which the EC50 by setting is: under setting [1], 500 to 10000 nM; under setting [2], 700 nM.

For the compound `COc1ccc(C23Cn4cccc4C(=O)N2CCN3C(=O)c2conc2C(F)(F)F)cc1` (stereo not shown) [Compound 52], the EC50 reads like this: under setting [1], under 49 nM; under setting [2], 24 nM.

In the case of `COc1ccc(C23Cn4cccc4C(=O)N2CCN3C(=O)c2c(C)noc2C)cc1` (stereo not shown) [Compound 53], the EC50 is, setting by setting: under setting [1], 100 to 499 nM; under setting [2], 260 nM.

In the case of `COc1ccc(C23Cn4cccc4C(=O)N2CCN3C(=O)c2ccoc2)cc1` (stereo not shown) [Compound 54], the EC50 runs as follows: under setting [1], 500 to 10000 nM; under setting [2], 600 nM.

As to `COc1ccc(C23Cn4cccc4C(=O)N2CCN3C(=O)c2ocnc2C)cc1` (stereo not shown) [Compound 55], the EC50 under setting [1] was in the range of 500 to 10000 nM and the EC50 under setting [2] was determined as 2500 nM.

Regarding `COc1ccc(C23Cn4cccc4C(=O)N2CCN3C(=O)c2snnc2C)cc1` (stereo not shown) [Compound 56], the EC50 under setting [1] lay in the range of 100 to 499 nM and the EC50 under setting [2] turned out to be 370 nM.

For `Cc1nocc1C(=O)N1CCN2C(=O)c3cccn3CC12c1ccc2c(c1)CCO2` (stereo not shown) [Compound 57], the EC50 is, setting by setting: under setting [1], under 49 nM; under setting [2], 14 nM.

With `COc1ccc(C23Cn4cccc4C(=O)N2CCN3C(=O)c2conc2C)cn1` (stereo not shown) [Compound 58], the EC50 was under 49 nM under setting [1] and 49 nM under setting [2].

For the compound `COc1ccc(C23Cn4cccc4C(=O)N2CCN3C(=O)c2ncoc2C2CC2)cc1` (stereo not shown) [Compound 59], the EC50 runs as follows: under setting [1], 100 to 499 nM; under setting [2], 180 nM.

In the case of `COc1ccc(C23Cn4cccc4C(=O)N2CCN3C(=O)c2cccn2C)cc1` (stereo not shown) [Compound 60], the EC50 runs as follows: under setting [1], 500 to 10000 nM; under setting [2], 4700 nM.

With `COc1ccc(C23Cn4cccc4C(=O)N2CCN3C(=O)c2ccnn2C)cc1` (stereo not shown) [Compound 61], the EC50 was 500 to 10000 nM under setting [1] and 980 nM under setting [2].

Consider `Cc1nocc1C(=O)OCc1ccc(C23Cn4cccc4C(=O)N2CCN3C(=O)c2conc2C)cc1` (stereo not shown) [Compound 62, 4-{1-[(3-methyl-1,2-oxazol-4-yl)carbonyl]-5-oxo-2,3-dihydro-1H,5H-imidazo[1,2-a]pyrrolo[1,2-d]pyrazin-10a(10H)-yl}benzyl 3-methyl-1,2-oxazole-4-carboxylate], for which the EC50 is, setting by setting: under setting [1], under 49 nM; under setting [2], 48 nM.

As to `Cc1nocc1C(=O)N1CCN2C(=O)c3cc(-c4ccccn4)nn3CC12c1ccc(Cl)cc1` (stereo not shown) [Compound 63, 10a-(4-chlorophenyl)-1-[(3-methyl-1,2-oxazol-4-yl)carbonyl]-7-(pyridin-2-yl)-2,3,10,10a-tetrahydro-1H,5H-imidazo[1,2-a]pyrazolo[1,5-d]pyrazin-5-one], the EC50 under setting [1] is under 49 nM and the EC50 under setting [2] was found to be 21 nM.

Consider `Cc1nocc1C(=O)N1CCN2C(=O)c3cc(-c4ccccc4)nn3CC12c1ccc(Cl)cc1` (stereo not shown) [Compound 64], for which the concentration giving a half-maximal response (EC50) is 500 to 10000 nM under setting [1] and 8600 nM under setting [2].

For `COc1ccc(C23Cn4cc(F)cc4C(=O)N2CCN3C(=O)c2conc2C)cc1` (stereo not shown) [Compound 65], the EC50 was 50 to 99 nM under setting [1] and 66 nM under setting [2].

Turning to `COc1ccc(C23Cn4cc(F)cc4C(=O)N2CCN3C(=O)c2conc2C(F)(F)F)cc1` (stereo not shown) [Compound 66], the EC50 is, setting by setting: under setting [1], under 49 nM; under setting [2], 15 nM.

As for `CCc1nocc1C(=O)N1CCN2C(=O)c3cccn3CC12c1ccc(OC)cc1` (stereo not shown) [Compound 67], the EC50 is under 49 nM under setting [1] and 17 nM under setting [2].

For the compound `COc1ccc(C23Cn4cccc4C(=O)N2CCN3C(=O)c2conc2C(C)C)cc1` (stereo not shown) [Compound 68], the EC50 is 50 to 99 nM under setting [1] and 53 nM under setting [2].

For the compound `Cc1nocc1C(=O)N1CCN2C(=O)c3cccn3CC12c1ccc(O)cc1` (stereo not shown) [Compound 69], the EC50 reads like this: under setting [1], 100 to 499 nM; under setting [2], 160 nM.

Regarding `Cc1nocc1C(=O)N1CCN2C(=O)c3cc(-c4ccco4)nn3CC12c1ccc(Cl)cc1` (stereo not shown) [Compound 70], the EC50 by setting is: under setting [1], under 49 nM; under setting [2], 3.6 nM.

Consider `COc1ccc(C23Cn4cccc4C(=O)N2CCN3C(=O)c2cccnc2)cc1` (stereo not shown) [Compound 71], for which the EC50 runs as follows: under setting [1], over 10000 nM; under setting [2], 11000 nM.

As to `Cc1nocc1C(=O)N1CCN2C(=O)c3ccnn3CC12c1ccc(Cl)cc1` (stereo not shown) [Compound 72], the EC50 by setting is: under setting [1], under 49 nM; under setting [2], 48 nM.

`Cc1nocc1C(=O)N1CCN2C(=O)c3cccn3CC12c1ccsc1` (stereo not shown) [Compound 73]: the EC50 under setting [1] lay within 100 to 499 nM and the concentration for a half-maximal effect (EC50) under setting [2] was 250 nM.

Regarding `Cc1nocc1C(=O)N1CCN2C(=O)c3cccn3CC12c1cccs1` (stereo not shown) [Compound 74], the EC50 runs as follows: under setting [1], 100 to 499 nM; under setting [2], 220 nM.

In the case of `COc1ccc(C23Cn4cc(-c5nnn[nH]5)cc4C(=O)N2CCN3C(=O)c2conc2C)cc1` (stereo not shown) [Compound 75, 10a-(4-methoxyphenyl)-1-[(3-methyl-1,2-oxazol-4-yl)carbonyl]-7-(1H-tetrazol-5-yl)-2,3,10,10a-tetrahydro-1H,5H-imidazo[1,2-a]pyrrolo[1,2-d]pyrazin-5-one], the EC50 under setting [1] was over 10000 nM.

Take `COCc1ccc(C23Cn4cccc4C(=O)N2CCN3C(=O)c2conc2C)cc1` (stereo not shown) [Compound 76]: the EC50 is 50 to 99 nM under setting [1] and 67 nM under setting [2].

As for `Cc1ccc([C@@]23Cn4cccc4C(=O)N2CCN3C(=O)c2conc2C)cn1` [Compound 77A, (10aS)-1-[(3-methyl-1,2-oxazol-4-yl)carbonyl]-10a-(6-methylpyridin-3-yl)-2,3,10,10a-tetrahydro-1H,5H-imidazo[1,2-a]pyrrolo[1,2-d]pyrazin-5-one], the EC50 is 500 to 10000 nM under setting [1] and 7300 nM under setting [2].

For `Cc1ccc([C@]23Cn4cccc4C(=O)N2CCN3C(=O)c2conc2C)cn1` [Compound 77B, (10aR)-1-[(3-methyl-1,2-oxazol-4-yl)carbonyl]-10a-(6-methylpyridin-3-yl)-2,3,10,10a-tetrahydro-1H,5H-imidazo[1,2-a]pyrrolo[1,2-d]pyrazin-5-one], the EC50 is under 49 nM under setting [1] and 19 nM under setting [2].

Take `Cc1ccc(C23Cn4cccc4C(=O)N2CCN3C(=O)c2conc2C)cn1` (stereo not shown) [Compound 77]: the EC50 under setting [1] lay within 50 to 99 nM and the EC50 under setting [2] was determined as 56 nM.

As for `Cc1nocc1C(=O)N1CCN2C(=O)c3cccn3CC12c1ccc[n+]([O-])c1` (stereo not shown) [Compound 78, 1-[(3-methyl-1,2-oxazol-4-yl)carbonyl]-10a-(1-oxidopyridin-3-yl)-2,3,10,10a-tetrahydro-1H,5H-imidazo[1,2-a]pyrrolo[1,2-d]pyrazin-5-one], the 50% effective concentration (EC50) by setting is: under setting [1], 500 to 10000 nM; under setting [2], 5800 nM.

Turning to `Cc1nocc1C(=O)N1CCN2C(=O)c3ccc(Cl)n3CC12c1ccc(F)cc1` (stereo not shown) [Compound 80], the EC50 by setting is: under setting [1], under 49 nM; under setting [2], 3.1 nM.

On to `Cc1nocc1C(=O)N1CCN2C(=O)c3ccc(Cl)n3CC12C1CCOCC1` (stereo not shown) [Compound 81, 8-chloro-1-[(3-methyl-1,2-oxazol-4-yl)carbonyl]-10a-(tetrahydro-2H-pyran-4-yl)-2,3,10,10a-tetrahydro-1H,5H-imidazo[1,2-a]pyrrolo[1,2-d]pyrazin-5-one], for which the EC50 is 50 to 99 nM under setting [1] and 67 nM under setting [2].

Take `COc1ccc(C23Cn4cc(-c5cnn(C)c5)cc4C(=O)N2CCN3C(=O)c2conc2C)cc1` (stereo not shown) [Compound 82]: the EC50 by setting is: under setting [1], under 49 nM; under setting [2], 48 nM.

As a reminder, the EC50 is the concentration at which the effect is half-maximal.
